The values that follow come from US8501713B2, “Drug combinations for the treatment of duchenne muscular dystrophy” (Summit Corporation PLC, priority 2007, dated 2013).

The test system of this assay is Utrophin A promoter linked to a luciferase reporter gene. Description: Luciferase reporter assay (murine H2K cells). It counts as cell-based. The note with it: Mus musculus, H2K mdx, luciferase level relative to control; H2K/mdx/Utro A reporter cells; compound 10 μM final concentration; read-out: Activity. The method, boiled down: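 Compound at 10 μM final was applied for 48 hrs to plated H2K mdx myoblasts (33° C, 10% CO2, interferon-containing medium) bearing a luciferase gene under the utrophin A promoter. Luminescence from lysed cells served as read-out.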

`c1ccc(-c2ccc3oc(-c4ccccc4)nc3c2)cc1` [Example 85, 2,5-diphenylbenzo[d]oxazole]: the activity at 10 µM fell in the range of 301 to 400%. As for `c1ccc(-c2nc3c(ccc4ccccc43)o2)cc1` [Example 86, 2-phenylnaphtho[1,2-d]oxazole], the figure is 301 to 400%; as for `O=C(Nc1ccc2oc(-c3ccc(Cl)cc3)nc2c1)c1ccncc1` [Example 87, N-(2-(4-chlorophenyl)benzo[d]oxazol-5-yl)isonicotinamide], less than 200%. As for `O=C(Nc1ccc2oc(-c3ccc(Cl)cc3)nc2c1)c1ccccc1` [Example 88, N-(2-(4-chlorophenyl)benzo[d]oxazol-5-yl)benzamide], the figure is less than 200%; as for `O=C(Nc1ccc2oc(-c3ccc(Cl)cc3)nc2c1)c1ccc(Cl)cc1` [Example 89, 4-chloro-N-(2-(4-chlorophenyl)benzo[d]oxazol-5-yl)benzamide], less than 200%; as for `Cc1ccc(C(=O)Nc2ccc3oc(-c4ccc(Cl)cc4)nc3c2)cc1` [Example 90, N-(2-(4-chlorophenyl)benzo[d]oxazol-5-yl)-4-methylbenzamide], less than 200%. As for `COc1ccc(C(=O)Nc2ccc3oc(-c4ccc(Cl)cc4)nc3c2)cc1` [Example 91, N-(2-(4-chlorophenyl)benzo[d]oxazol-5-yl)-4-methoxybenzamide], the figure is less than 200%; as for `COc1ccccc1C(=O)Nc1ccc2oc(-c3ccc(Cl)cc3)nc2c1` [Example 92, N-(2-(4-chlorophenyl)benzo[d]oxazol-5-yl)-2-methoxybenzamide], less than 200%. For the compound `CN(C)c1ccc(C(=O)Nc2ccc3oc(-c4ccc(Cl)cc4)nc3c2)cc1` [Example 93, N-(2-(4-chlorophenyl)benzo[d]oxazol-5-yl)-4-(dimethylamino)benzamide], the activity at 10 µM was less than 200%.

Take `O=C(Nc1ccc2oc(-c3ccc(Cl)cc3)nc2c1)c1ccc(C(F)(F)F)cc1` [Example 94, N-(2-(4-chlorophenyl)benzo[d]oxazol-5-yl)-4-(trifluoromethyl)benzamide]: the activity at 10 µM was less than 200%. `O=C(Nc1ccc2oc(-c3ccc(Cl)cc3)nc2c1)c1cc(Cl)cc(Cl)c1` [Example 95, 3,5-dichloro-N-(2-(4-chlorophenyl)benzo[d]oxazol-5-yl)benzamide]: the activity at 10 µM is less than 200%. As for `O=C(Nc1ccc2oc(-c3ccc(Cl)cc3)nc2c1)c1ccc(F)cc1` [Example 96, N-(2-(4-chlorophenyl)benzo[d]oxazol-5-yl)-4-fluorobenzamide], the figure is less than 200%; as for `O=C(Cc1ccccc1)Nc1ccc2oc(-c3ccc(Cl)cc3)nc2c1` [Example 97, N-(2-(4-chlorophenyl)benzo[d]oxazol-5-yl)-2-phenylacetamide], 201 to 300%. As for `O=C(CCc1ccccc1)Nc1ccc2oc(-c3ccc(Cl)cc3)nc2c1` [Example 98, N-(2-(4-chlorophenyl)benzo[d]oxazol-5-yl)-3-phenylpropanamide], the figure is less than 200%; as for `CCCC(=O)Nc1ccc2oc(-c3ccc(Cl)cc3)nc2c1` [Example 99, N-(2-(4-chlorophenyl)benzo[d]oxazol-5-yl)butyramide], more than 401%. As for `CCCCC(=O)Nc1ccc2oc(-c3ccc(Cl)cc3)nc2c1` [Example 100, N-(2-(4-chlorophenyl)benzo[d]oxazol-5-yl)pentanamide], the figure is 201 to 300%; as for `CC(C)C(=O)Nc1ccc2oc(-c3ccc(Cl)cc3)nc2c1` [Example 101, N-(2-(4-chlorophenyl)benzo[d]oxazol-5-yl)isobutyramide], more than 401%. `O=C(Nc1ccc2oc(-c3ccc(Cl)cc3)nc2c1)c1ccco1` [Example 102, N-(2-(4-chlorophenyl)benzo[d]oxazol-5-yl)furan-2-carboxamide]: the activity at 10 µM is less than 200%.

As for `O=C(Nc1ccc2oc(-c3ccc(Cl)cc3)nc2c1)c1cccs1` [Example 103, N-(2-(4-chlorophenyl)benzo[d]oxazol-5-yl)thiophene-2-carboxamide], the activity at 10 µM was less than 200%.
